The nature of series [1]: 13 week toxicology study in rat: exposure interaction of tofacitinib and PF-06650833. It is filed as in vivo.
Series [2] deals with HUVEC and M1 macrophages+Zymosan (TLR2 ligand). The experiment in a line: BioMAP IMphg system. It is filed as cell-based, human. The following applies: CD14+ derived macrophages; PF-06650833 19-500 nM. An excerpt: The BioMAP systems consist of human primary cell-based systems designed to model different aspects of the human body in an in vitro format. The 12 systems tested characterized the test compounds across a broad set of systems modeling various human disease states. BioMAP systems were constructed with one or more primary cell types from healthy human donors, with stimuli (such as cytokines or growth factors) added to capture relevant signaling networks that naturally occur in human tissue or pathological conditions. […] Soluble factors from supernatants were quantified using either HTRF® detection, bead-based multiplex immunoassay or capture ELISA. Overt adverse effects of test agents on cell proliferation and viability (cytotoxicity) were detected by sulforhodamine B (SRB) staining, for adherent cells, and alamarBlue® reduction for cells in suspension. […] Each tested compound generated a signature BioMAP profile that was created from the changes in protein biomarker readouts within individual system environments. […] Each readout was measured quantitatively by immune-based methods that detected protein (e.g., ELISA) or functional assays that measured proliferation and viability. BioMAP readouts were diverse and included cell surface receptors, cytokines, chemokines, matrix molecules and enzymes. […]

Each structure is given as a SMILES string.

Take `CC[C@@H]1[C@H](F)C(=O)N[C@@H]1COc1nccc2cc(C(N)=O)c(OC)cc12` [PF-06650833, 1-(((2S,3S,4S)-3-Ethyl-4-fluoro-5-oxopyrrolidin-2-yl)methoxy)-7-methoxyisoquinoline-6-carboxamide]: the “Effects of 10 mg/kg tofacitinib on PF-06650833 exposure” value in series [1] (female rats, 50 mg/kg PF-06650833) is listed as “no significant effects”; in series [1] (male rats, 100 mg/kg PF-06650833), “no significant effects”. In addition, the “Activity in the IMphg system” value in series [2] is given as “no activity was found”.

The values above are taken from patent US20220378707A1, “1-(((2S,3S,4S)-3-ETHYL-4-FLUORO-5-OXOPYRROLIDIN-2-YL)METHOXY)-7-METHOXYISOQUINOLINE-6-CARBOXAMIDE COMBINATIONS AND ORAL DOSAGE FORMS” (Pfizer Inc., priority 2019, published 2022).
